According to PubChem BioAssay (NCI):
Where “and” joins values, the source holds several entries; their conditions need not be identical. Identical values can stand only once.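 Protocol summary: plate cells (96-well), add compound at 5 concentrations, incubate 48 h, interpolate endpoints linearly. The concentration for 50% growth inhibition is given as GI50. The concentration for full growth arrest is given as TGI.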

Experiments:
Test in all cases: NCI tumour cell line growth inhibition, 48 h
DLD-1 colon = system: DLD-1 colon
DMS 114 small cell lung = system: DMS 114 small cell lung
DMS 273 small cell lung = system: DMS 273 small cell lung
KM20L2 colon = system: KM20L2 colon
M19-MEL melanoma = system: M19-MEL melanoma
RXF-631 renal = system: RXF-631 renal
MDA-N = system: MDA-N
HOP-18 NSCLC = system: HOP-18 NSCLC
XF 498 CNS = system: XF 498 CNS
P388 leukemia = system: P388 leukemia
P388/ADR leukemia = system: P388/ADR leukemia

Compound	TGI (DLD-1 colon)	TGI (DMS 114 small cell lung)	TGI (DMS 273 small cell lung)	TGI (KM20L2 colon)	TGI (M19-MEL melanoma) [µM]	TGI (RXF-631 renal) [µM]	TGI (MDA-N) [µM]	TGI (HOP-18 NSCLC)	TGI (XF 498 CNS)	other results
COc1cc(CC(=O)O)c([N+](=O)[O-])cc1OC	> 100 µM	> 100 µM	> 100 µM	> 100 µM	> 100	> 100	–	–	–	–
CCc1ncc(CO)n1Cc1cccc2ccccc12	–	–	–	–	–	–	> 100	–	–	–
COc1ccc([C@@H]2OC(=O)C3C2C(=O)O[C@H]3c2ccc(OC)cc2)cc1 (some centres undefined)	> 100 µM	> 100 µM	> 100 µM	> 100 µM	> 100	> 100	–	> 100 µM	> 100 µM	–
[CH3][Hg]/[N]=C(/N)NC#N	16.9 µM	3.43 µM	27.5 µM	33.4 µM	25.2	–	–	17.1 µM	–	GI50 (DLD-1 colon): 4.27 µM; GI50 (DMS 114 small cell lung): 1.98 µM; GI50 (DMS 273 small cell lung): 13.5 µM; GI50 (HOP-18 NSCLC): 4.63 µM; GI50 (KM20L2 colon): 17.3 µM; GI50 (M19-MEL melanoma): 12.1 µM
Cc1cc(Cl)cc2c1NC(=O)C2(O)C(C(=O)c1ccccc1)c1ccccc1 (centres undefined)	> 100 µM	85.7 µM and 45.8 µM	> 100 µM	> 100 µM	10	> 100	–	> 100 µM and 95.7 µM	82.7 µM and > 100 µM	GI50 (HOP-18 NSCLC): > 100 µM and 22 µM
CC1[C@@H]2CC=C3[C@H]4CCC5Cc6nc7c(nc6C[C@@]5(C)C4CC(=O)[C@]32CO[C@]12OC(C)(C)CC2O)CC1CC[C@@H]2C3=C[C@H]4O[C@@]5(O[C@@](C)(CO)C[C@@H]5O)C(C)[C@@]4(O)[C@]3(C)[C@@H](O)CC2[C@]1(C)C7 (some centres undefined)	0.709 µM and > 3.65 µM	0.0424 µM	0.000328 µM and 0.000802 µM	0.0349 µM and 0.0754 µM	> 3.65	0.00275	0.0303	0.393 µM and > 3.65 µM	0.424 µM and 1.8 µM	GI50 (DLD-1 colon): 0.0416 µM and 0.0575 µM; GI50 (DMS 273 small cell lung): 0.000365 µM; GI50 (KM20L2 colon): 0.00119 µM and 0.00294 µM; GI50 (M19-MEL melanoma): 0.617 µM and 2.48 µM; GI50 (MDA-N): 0.00389 µM; TGI (P388 leukemia): 0.000638 µM; TGI (P388/ADR leukemia): 0.0109 µM; GI50 (RXF-631 renal): 0.000312 µM; GI50 (XF 498 CNS): 0.000725 µM and 0.00479 µM
Cc1cc(C)c(/C=N/NS(=O)(=O)c2ccccc2)c(C)c1	> 100 µM	> 100 µM	> 100 µM	> 100 µM	> 100	> 100	–	> 100 µM	–	–
COC(=O)C(C(=O)C(=O)Nc1ccccc1C)c1nc2ccc([N+](=O)[O-])cc2[nH]c1=O (centres undefined)	> 100 µM	> 100 µM	> 100 µM	> 100 µM	> 100	–	–	> 100 µM	> 100 µM	–
NC(=O)c1csc(-c2ccc(CO)o2)n1	–	–	–	–	–	–	> 100	–	–	–
CCc1ccccc1NC(=O)C(=O)C1C(=O)N(c2ccccc2)N=C1N (centres undefined)	> 100 µM	> 100 µM	> 100 µM	> 100 µM	> 100	> 100	–	> 100 µM	> 100 µM	–
COC1C(=O)CCC2(CO2)C1(O)C1(C)OC1CC=C(C)C (centres undefined)	–	–	–	–	–	–	> 100	–	–	–
CC(=O)Nc1ccc(C2=N/C(=C\c3ccc(Cl)cc3)C(=O)O2)cc1	> 100 µM	–	> 100 µM	> 100 µM	57.5	–	–	> 100 µM	61.4 µM	–
CC#CC#C/C(=C/C=CC(=O)OC)SC	–	–	–	–	–	–	> 100	–	–	–
CC1(C)C(CC(=O)O)CCCC1CC(=O)O (centres undefined)	–	–	–	–	–	–	> 100	–	–	–
Cc1ccc(NC(=O)CC2SC(=Nc3ccc(Cl)cc3)NC2=O)cc1C (centres undefined)	38.5 µM	42.1 µM	34.3 µM	33.5 µM	36.1	–	–	32.5 µM	–	–
Cc1cc(C)nc(NS(=O)(=O)c2ccc(NC(=O)COC(=O)c3cccc4c(=O)c5ccccc5[nH]c34)cc2)n1	> 100 µM	> 100 µM	> 100 µM	> 100 µM	42.1	–	–	–	> 100 µM	–
CCOC(=O)C(=O)C(C#N)c1ccc(Cl)cc1 (centres undefined)	> 100 µM	> 100 µM	> 100 µM	> 100 µM	> 100	–	–	–	> 100 µM	–
